Measurements from ChEMBL document CHEMBL5346941, “Design, synthesis and evaluation of novel monoamine oxidase B (MAO-B) inhibitors with improved pharmacokinetic properties for Parkinson's disease” (Eur J Med Chem, 2023).
Active and inactive are the calls of the source. No cut-off for these calls is given here.

Key:
[1] = Apparent permeability across basolateral to apical side in MDCKII-MDR1 cells at 10 uM incubated for 30 mins by LC-MS/MS analysis; format: ADME, cell-based, Canis lupus familiaris; settings: dog, MDCK-MDR1
[2] = Metabolic stability in dog liver microsomes assessed as half life at 1 uM incubated for 60 mins in presence of NADPH by LC-MS/MS analysis; format: ADME, Canis lupus familiaris, Microsome
[3] = target: Voltage-gated inwardly rectifying potassium channel KCNH2 (Homo sapiens, UniProt Q12809); assay: Inhibition of hERG transfected in CHO-K1 cells at -80 mV holding potential incubated for 2 mins by patch clamp assay; format: toxicity, cell-based
[4] = target: T1, Amine oxidase [flavin-containing] A (Homo sapiens, UniProt P21397); assay: Inhibition of recombinant human MAO-A expressed in Sf9 cells using […] as substrate preincubated for 15 mins followed by substrate addition and measured after 60 mins by luciferin based luminescence analysis
T1 sequence (P21397 whole entry): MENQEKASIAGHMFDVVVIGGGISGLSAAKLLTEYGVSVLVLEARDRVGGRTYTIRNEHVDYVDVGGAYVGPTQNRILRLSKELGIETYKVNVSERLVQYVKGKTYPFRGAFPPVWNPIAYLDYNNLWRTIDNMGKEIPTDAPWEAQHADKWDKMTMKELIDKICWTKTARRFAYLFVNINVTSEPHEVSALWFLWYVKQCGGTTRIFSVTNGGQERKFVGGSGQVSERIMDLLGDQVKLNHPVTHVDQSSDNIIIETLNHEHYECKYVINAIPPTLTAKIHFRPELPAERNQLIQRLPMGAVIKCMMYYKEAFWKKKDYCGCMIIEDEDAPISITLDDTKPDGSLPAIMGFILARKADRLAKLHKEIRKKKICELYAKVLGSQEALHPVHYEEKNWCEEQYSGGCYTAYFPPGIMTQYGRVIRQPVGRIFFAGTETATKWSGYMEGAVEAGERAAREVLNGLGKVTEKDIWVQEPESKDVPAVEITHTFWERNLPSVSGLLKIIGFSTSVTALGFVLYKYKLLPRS

CYP2D6 = CYP2D6 (Homo sapiens, UniProt P10635); assay: Inhibition of CYP2D6 in human liver microsomes using propranolol as substrate at 10 uM incubated for 10 mins in presence of NADPH by LC-MS/MS analysis relative to control; format: ADME, Microsome; settings: probe propranolol
[5] = Drug concentration in Sprague-Dawley rat brain at 5 mg/kg, ip measured after 60 mins by LC-MS/MS analysis; format: ADME, organism-based; settings: read-out: Ct
[6] = Protein binding in dog plasma at 1 uM incubated for 5 hrs by LC-MS/MS based rapid equilibrium dialysis method; format: ADME, cell-free, Canis lupus familiaris; settings: read-out: PPB (converted)
[7] = Protein binding in monkey plasma at 0.1 to 10 uM incubated for 5 hrs by LC-MS/MS based rapid equilibrium dialysis method; format: ADME, cell-free, Macaca mulatta; settings: rhesus monkey, dose 0.1-10 µM, read-out: PPB (converted)
[8] = Clearance in fasted Sprague-Dawley rat at 1 mg/kg, iv measured for 24 hrs; format: ADME, organism-based; settings: in vivo
[9] = Elimination half life in fasted ICR mouse at 5 mg/kg, IG measured for 24 hrs; format: ADME, organism-based; settings: in vivo, po, read-out: beta t1/2 (converted)
Mus musculus [10] = assay: Anti-parkinson activity in C57BL/6 mouse model of MPTP-induced dopamine deficits assessed as increase in dopamine concentration in striatum at 1 to 3 mg/kg, ip pretreated for 30 mins followed by MPTP addition and measured after 5 days by HPLC analysis; format: functional, organism-based; settings: dose 1-3 mg/kg, time 120.5 hrs
Mus musculus [11] = assay: In vivo inhibition of MAO-B in ICR mouse assessed as reduction in enzyme activity in brain at 2 mg/kg, ip administered once for 30 to 60 mins by amplex red based assay; format: functional, organism-based; settings: time 30-60 min
[12] = Elimination half life in fasted Sprague-Dawley rat at 1 mg/kg, iv measured for 24 hrs; format: ADME, organism-based; settings: in vivo, read-out: beta t1/2 (converted)
[13] = Metabolic stability in rat liver microsomes assessed as intrinsic clearance at 1 uM incubated for 60 mins in presence of NADPH by LC-MS/MS analysis; format: ADME, Microsome; settings: read-out: CLH
[14] = AUC (0 to t) in fasted ICR mouse at 5 mg/kg, IG measured for 24 hrs; format: ADME, organism-based; design: dose 5 mg/kg, time 24 hrs, route ig; settings: in vivo, po
[15] = Drug concentration in Sprague-Dawley rat brain at 5 mg/kg, ip measured after 15 mins by LC-MS/MS analysis; format: ADME, organism-based; settings: read-out: Ct
[16] = Drug concentration in Sprague-Dawley rat plasma at 5 mg/kg, ip measured after 120 mins by LC-MS/MS analysis; format: ADME, organism-based
[17] = Cmax in fasted ICR mouse at 5 mg/kg, IG measured for 24 hrs; format: ADME, organism-based; design: dose 5 mg/kg, time 24 hrs, route ig; settings: in vivo, po
[18] = Elimination half life in fasted Sprague-Dawley rat at 5 mg/kg, IG measured for 24 hrs; format: ADME, organism-based; settings: in vivo, po, read-out: beta t1/2 (converted)
[19] = Metabolic stability in mouse liver microsomes assessed as half life at 1 uM incubated for 60 mins in presence of NADPH by LC-MS/MS analysis; format: ADME, Microsome
Mus musculus [20] = assay: Anti-parkinson activity in MPTP-induced dopamine deficit C57BL/6 mouse model assessed as increase in dopamine concentration in striatum at 3 to 10 mg/kg, ip pretreated with MPTP for 4 hrs followed by compound administration for 5 times once every 4 hrs further incubated with L-dopa at 50 mg/kg for 30 mins prior to last dose and measured after 30 mins by HPLC analysis; format: functional, organism-based; settings: dose 3-10 mg/kg, time 16.5 hrs
[21] = Metabolic stability in monkey liver microsomes assessed as intrinsic clearance at 1 uM incubated for 60 mins in presence of NADPH by LC-MS/MS analysis; format: ADME, Macaca mulatta, Microsome; settings: rhesus monkey, read-out: CLH
[22] = Bioavailability in fasted ICR mouse at 5 mg/kg, IG measured for 24 hrs; format: ADME, organism-based; settings: in vivo, po
CYP1A2 = target: T2, CYP1A2 (Homo sapiens, UniProt P05177); assay: Inhibition of CYP1A2 in human liver microsomes using ethoxyresorufin as substrate at 10 uM incubated for 10 mins in presence of NADPH by LC-MS/MS analysis relative to control; format: ADME, Microsome; settings: probe ethoxyresorufin
T2 sequence (P05177 whole entry): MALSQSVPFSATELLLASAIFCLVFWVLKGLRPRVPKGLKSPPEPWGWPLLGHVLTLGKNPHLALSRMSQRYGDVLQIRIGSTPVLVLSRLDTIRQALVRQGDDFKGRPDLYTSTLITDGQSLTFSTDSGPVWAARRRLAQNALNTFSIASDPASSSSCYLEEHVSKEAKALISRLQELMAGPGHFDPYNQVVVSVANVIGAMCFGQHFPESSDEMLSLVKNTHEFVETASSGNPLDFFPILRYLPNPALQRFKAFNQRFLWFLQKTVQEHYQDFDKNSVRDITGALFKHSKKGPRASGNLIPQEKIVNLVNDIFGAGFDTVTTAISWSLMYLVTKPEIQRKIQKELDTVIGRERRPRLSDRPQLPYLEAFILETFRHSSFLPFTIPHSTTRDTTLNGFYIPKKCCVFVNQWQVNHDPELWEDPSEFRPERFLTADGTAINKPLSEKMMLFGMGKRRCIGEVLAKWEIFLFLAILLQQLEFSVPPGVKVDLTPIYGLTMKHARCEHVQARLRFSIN

[23] = Clearance in fasted ICR mouse at 2 mg/kg, iv measured for 24 hrs; format: ADME, organism-based; settings: in vivo

Sequence of Voltage-gated inwardly rectifying potassium channel KCNH2 (Q12809 whole entry): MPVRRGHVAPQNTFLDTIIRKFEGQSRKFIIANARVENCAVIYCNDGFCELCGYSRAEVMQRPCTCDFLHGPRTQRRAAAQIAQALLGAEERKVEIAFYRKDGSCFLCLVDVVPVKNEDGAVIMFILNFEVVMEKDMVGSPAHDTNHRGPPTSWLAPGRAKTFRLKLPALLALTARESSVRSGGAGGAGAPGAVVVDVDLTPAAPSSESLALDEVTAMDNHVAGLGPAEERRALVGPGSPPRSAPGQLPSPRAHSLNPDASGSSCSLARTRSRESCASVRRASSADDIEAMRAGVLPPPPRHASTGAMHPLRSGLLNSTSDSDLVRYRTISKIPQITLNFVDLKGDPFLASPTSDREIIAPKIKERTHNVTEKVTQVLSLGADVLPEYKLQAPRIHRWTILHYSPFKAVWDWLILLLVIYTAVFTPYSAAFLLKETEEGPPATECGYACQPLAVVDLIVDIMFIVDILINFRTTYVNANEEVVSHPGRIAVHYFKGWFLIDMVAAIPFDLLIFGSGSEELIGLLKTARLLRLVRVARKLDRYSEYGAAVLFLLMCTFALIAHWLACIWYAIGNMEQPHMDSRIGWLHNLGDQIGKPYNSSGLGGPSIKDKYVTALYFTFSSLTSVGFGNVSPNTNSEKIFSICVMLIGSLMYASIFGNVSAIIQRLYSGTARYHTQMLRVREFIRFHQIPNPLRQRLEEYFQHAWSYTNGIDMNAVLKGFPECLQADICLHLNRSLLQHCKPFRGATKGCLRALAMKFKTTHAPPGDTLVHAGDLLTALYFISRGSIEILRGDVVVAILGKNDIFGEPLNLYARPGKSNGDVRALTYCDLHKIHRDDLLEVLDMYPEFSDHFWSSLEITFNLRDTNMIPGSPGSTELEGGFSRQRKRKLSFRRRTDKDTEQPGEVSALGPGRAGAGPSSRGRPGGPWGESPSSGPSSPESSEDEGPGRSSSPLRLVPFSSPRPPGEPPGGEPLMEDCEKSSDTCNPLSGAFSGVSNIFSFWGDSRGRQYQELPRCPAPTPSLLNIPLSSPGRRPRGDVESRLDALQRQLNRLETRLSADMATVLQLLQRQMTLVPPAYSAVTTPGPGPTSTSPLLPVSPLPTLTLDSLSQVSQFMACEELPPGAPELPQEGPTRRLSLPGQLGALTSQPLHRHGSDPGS
Sequence of CYP2D6 (P10635 whole entry): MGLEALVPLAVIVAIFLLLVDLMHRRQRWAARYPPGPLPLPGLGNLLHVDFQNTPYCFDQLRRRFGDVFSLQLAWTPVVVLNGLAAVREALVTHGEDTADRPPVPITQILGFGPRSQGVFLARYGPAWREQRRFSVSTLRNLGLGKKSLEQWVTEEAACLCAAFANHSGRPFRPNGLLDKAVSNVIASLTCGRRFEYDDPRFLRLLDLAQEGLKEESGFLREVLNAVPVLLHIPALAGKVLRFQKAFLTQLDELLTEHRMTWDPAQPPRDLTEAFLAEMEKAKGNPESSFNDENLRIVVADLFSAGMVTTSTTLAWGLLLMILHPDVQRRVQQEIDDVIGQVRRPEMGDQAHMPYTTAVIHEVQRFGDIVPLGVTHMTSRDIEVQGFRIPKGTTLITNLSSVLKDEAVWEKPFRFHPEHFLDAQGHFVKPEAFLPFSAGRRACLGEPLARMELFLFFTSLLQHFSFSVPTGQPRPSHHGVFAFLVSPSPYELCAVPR

NC(=O)[C@@H]1C[C@H](F)CN1Cc1ccc2oc(-c3ccc(F)cc3)cc2c1
Papp B→A at 0.5 h, 10 µM [1]: 2.97 ×10⁻⁶ cm/s | half-life at 1 µM [2]: 2.45 h | IC50 [3]: > 30 µM | IC50 [4]: > 10 µM | inhibition at 10 min, 10 µM (CYP2D6): -3.37% | concentration at 1 h [5]: 8750 ng/g | fraction unbound at 5 h, 1 µM [6]: 0.0036 | fraction unbound at 5 h, up to 10 µM [7]: 0.0029 | clearance [8]: 54.2 mL/min/kg | half-life [9]: 3.8 h | Activity (Mus musculus [10]): Active | inhibition (Mus musculus [11]): Active | half-life [12]: 0.74 h | CLint scaled at 1 µM [13]: 10.1 mL/min/kg | AUC(0-t) at 24 h [14]: 7950 ng·h/mL | concentration at 0.25 h [15]: 5560 ng/g | concentration at 2 h [16]: 458 ng/mL | Cmax [17]: 913 ng/mL | half-life [18]: 4.22 h | half-life at 1 µM [19]: 2.82 h | Activity (Mus musculus [20]): Active | CLint scaled at 1 µM [21]: 4.1 mL/min/kg | bioavailability [22]: 105% | inhibition at 10 min, 10 µM (CYP1A2): 32.6% | clearance [23]: 11 mL/min/kg
